Assay results as given in US20230257710A1, “NATURAL KILLER CELL HAVING CONTROLLED ONCOLOGY-RELEATED GENE EXPRESSION, AND USE THEREOF” (SUNGKWANG MEDICAL FOUNDATION, priority 2020, published 2023).

Test system: A2780cis xenograft
Assay type: in vivo, NSG mice
Procedure: The efficacy was evaluated by confirming the growth inhibitory effect of natural killer cells (pNK) cultured by the culture method according to one aspect as an immuno-anticancer agent. An A2780cis xenograft mouse model was prepared by subcutaneously injecting the […] ovarian cancer cell line A2780cis into the fat pad of 7-week-old NSG mice in an amount of 2×10^6 (cells). After ovarian cancer cell lines were injected, mice with tumors were randomly grouped on day 3: a group treated with intraperitoneal injection of cisplatin at 1 mg/kg, once/week; a group treated with intravenous injected of natural killer cells according to one aspect in the number of 1×10^7 (cells), 2 times/week; and a control group treated with the injection of PBS (FIG. 8). After injection of the ovarian cancer cell line, tumor size and body weight were measured daily.

N.N.[Cl][Pt][Cl] [cisplatin]
cancer cell growth inhibitory effect (compared to the control group (PBS), A2780cis xenograft NSG mice): about 55% | change in body weight (mouse, in vivo): no significant change in body weight
